Experimental data published in ChEMBL document CHEMBL1201862, “PubChem BioAssay data set” (2004).
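Where inhibition never reached the appropriate level, the endpoint shown equals the highest concentration tested. Otherwise, values were interpolated linearly from a five-concentration, 48-hour dose response in 96-well plates. GI50 = concentration required for 50% inhibition of growth.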 Active and inactive are the calls of the source. No stated cut-off is given here; in the data, active = GI50 up to about 1.1 µM and inactive = higher.

Tests used:
Assay in all cases: inhibition of tumour cell growth, NCI panel, 48 h
ACHN = tested on: ACHN
EKVX = tested on: EKVX
HCT-15 = tested on: HCT-15
HOP-62 = tested on: HOP-62
K562 = tested on: K562
MOLT-4 = tested on: MOLT-4
NCI-H23 = tested on: NCI-H23
OVCAR-5 = tested on: OVCAR-5
OVCAR-8 = tested on: OVCAR-8
SK-MEL-2 = tested on: SK-MEL-2
SK-MEL-5 = tested on: SK-MEL-5
SK-OV-3 = tested on: SK-OV-3
SN12C = tested on: SN12C
T47D = tested on: T47D
TK-10 = tested on: TK-10
UACC-62 = tested on: UACC-62
LOX IMVI = tested on: LOX IMVI
NCI-H522 = tested on: NCI-H522
OVCAR-4 = tested on: OVCAR-4
UACC-257 = tested on: UACC-257

| SMILES | GI50 (ACHN) | GI50 (EKVX) | GI50 (HCT-15) | GI50 (HOP-62) | GI50 (K562) | GI50 (MOLT-4) | GI50 (NCI-H23) | GI50 (OVCAR-5) | GI50 (OVCAR-8) | GI50 (SK-MEL-2) | GI50 (SK-MEL-5) | GI50 (SK-OV-3) | GI50 (SN12C) | GI50 (T47D) | GI50 (TK-10) | GI50 (UACC-62) | GI50 (LOX IMVI) | GI50 (NCI-H522) | GI50 (OVCAR-4) | GI50 (UACC-257) |
| --- | --- | --- | --- | --- | --- | --- | --- | --- | --- | --- | --- | --- | --- | --- | --- | --- | --- | --- | --- | --- |
| B.CC(=O)OC1CN2CCC1CC2 (centres undefined) | > 100 µM (inactive) | > 100 µM (inactive) | > 100 µM | > 100 µM (inactive) | > 100 µM (inactive) | > 100 µM (inactive) | > 100 µM (inactive) | > 100 µM (inactive) | > 100 µM (inactive) | > 100 µM (inactive) | > 100 µM (inactive) | > 100 µM (inactive) | > 100 µM (inactive) | > 100 µM (inactive) | > 100 µM (inactive) | > 100 µM (inactive) |  |  |  |  |
| COc1ccccc1C1C(Cl)C(=O)N1NC(=O)Cc1ccccc1 (centres undefined) | > 100 µM (inactive) | > 100 µM (inactive) | 73.6 µM | 82.4 µM (inactive) | 35.2 µM (inactive) | 27.7 µM (inactive) | > 100 µM (inactive) | > 100 µM (inactive) | > 100 µM (inactive) | 53.7 µM (inactive) | 61.9 µM (inactive) | 71.4 µM (inactive) | > 100 µM (inactive) |  | > 100 µM (inactive) | 83.2 µM (inactive) | 50.5 µM (inactive) | 48.3 µM (inactive) | 75.7 µM (inactive) | > 100 µM (inactive) |
| Cc1ccc(N2C(=O)C=C(C3=C(O)C(=O)N(c4ccc(C)cc4)C3=O)C2=O)cc1 | > 100 µM (inactive) | > 100 µM (inactive) | > 100 µM | > 100 µM (inactive) | > 100 µM (inactive) | > 100 µM (inactive) | > 100 µM (inactive) | > 100 µM (inactive) | > 100 µM (inactive) |  | > 100 µM (inactive) | > 100 µM (inactive) | > 100 µM (inactive) | > 100 µM (inactive) | > 100 µM (inactive) | > 100 µM (inactive) | > 100 µM (inactive) |  | > 100 µM (inactive) | > 100 µM (inactive) |
| O=C(NC1=C(Cl)C(=O)c2ccccc2C1=O)c1ccc(F)cc1 | 0.938 µM (active) | 11.8 µM (inactive) | 0.535 µM | 13.9 µM (inactive) | 0.91 µM (active) | 2.24 µM (inactive) | 3.27 µM (inactive) | 4.85 µM (inactive) | 5.47 µM (inactive) |  |  |  | 3.41 µM (inactive) | 1.9 µM (inactive) | 5.09 µM (inactive) | 0.279 µM (active) |  | 0.456 µM (active) | 6.67 µM (inactive) | 1.98 µM (inactive) |
| O=C(C/N=C(\CN(c1ccccc1)c1ccccc1)Oc1c([N+](=O)[O-])cc([N+](=O)[O-])cc1[N+](=O)[O-])N1CCNCC1 | > 100 µM (inactive) | > 100 µM (inactive) | > 100 µM | > 100 µM (inactive) | > 100 µM (inactive) | > 100 µM (inactive) | > 100 µM (inactive) | > 100 µM (inactive) | 61.7 µM (inactive) |  | 28.7 µM (inactive) | 0.622 µM (active) | > 100 µM (inactive) | > 100 µM (inactive) | > 100 µM (inactive) | 43 µM (inactive) |  | > 100 µM (inactive) | > 100 µM (inactive) | > 100 µM (inactive) |
| COc1cc(OC)c2c3c(OC)cc(OC)c4c(=O)c(O)c(C[C@@H](C)O)c(c5c(C[C@@H](C)O)c(O)c(=O)c1c25)c43 | 33.4 µM (inactive) | 32.4 µM (inactive) | 19.2 µM | 22.4 µM (inactive) |  | 15.3 µM (inactive) | 19 µM (inactive) | 30.6 µM (inactive) | 19.8 µM (inactive) | 19 µM (inactive) | 14.2 µM (inactive) | 62.2 µM (inactive) | 24.5 µM (inactive) | 16.6 µM (inactive) | 53 µM (inactive) |  | 12.6 µM (inactive) |  | 30.5 µM (inactive) | 34.3 µM (inactive) |
| c1cc(C2O[C@H]3CCCN3[C@@H]2c2ccncc2)ccn1 (some centres undefined) | > 100 µM (inactive) | > 100 µM (inactive) | > 100 µM | > 100 µM (inactive) | > 100 µM (inactive) | > 100 µM (inactive) | > 100 µM (inactive) | > 100 µM (inactive) | > 100 µM (inactive) | > 100 µM (inactive) | > 100 µM (inactive) | > 100 µM (inactive) | > 100 µM (inactive) |  | > 100 µM (inactive) | > 100 µM (inactive) | > 100 µM (inactive) | > 100 µM (inactive) | > 100 µM (inactive) | > 100 µM (inactive) |
| COc1cccc(-c2nc(O)c3ccccc3n2)c1OC | > 100 µM (inactive) | > 100 µM (inactive) | > 100 µM | > 100 µM (inactive) |  | > 100 µM (inactive) | > 100 µM (inactive) | > 100 µM (inactive) | > 100 µM (inactive) | > 100 µM (inactive) | > 100 µM (inactive) | > 100 µM (inactive) | > 100 µM (inactive) | > 100 µM (inactive) |  | 51.8 µM (inactive) |  |  | > 100 µM (inactive) | > 100 µM (inactive) |
